In US20080056993A1, “Compositions, Methods and Kits Using Adenosine and Inosine in Combination for Diagnosis and Treatment” (ADENOBIO N.V., priority 2006, published 2008):
Values joined by “and” are separate entries in the source; they are usually repeats but may differ in a detail not shown here. Equal entries are not always repeated. Values belong to the compound of their own block, whether it stands above or below them.

How the values were obtained:
[1] = Maximal solubility in nonpyrogenic fluid suitable for parenteral infusion; format: physicochemical; conditions: adenosine and inosine combined in a nonpyrogenic fluid suitable for parenteral infusion
Protocol: Combined in a nonpyrogenic, fluid suitable for parenteral infusion, maximal adenosine solubility is about 4 mg/ml and that of inosine 20 mg/ml. Concentrations approaching one or both of these maxima are convenient for unit dosage forms intended for long infusion times, since high concentrations of the nucleoside actives reduce the volume required to be infused. Typical embodiments include, for example, 250 ml containers (vials, etc.) containing 1,000 mg of adenosine with 100 mg, 1,000 mg, 2,000 mg, or even 3,000 mg, 4,000 mg, 5,000 mg, even 6,000 mg of inosine, with intermediate inosine amounts permissible.

anaesthetized rats = assay: Carotid blood flow (CaBF) in anaesthetized rats, continuous i.v. infusion; format: in vivo, rat; conditions: for increase in CaBF, percentage variation from baseline: 6 min continuous i.v. infusion, adenosine 0.05 mg/kg/min, inosine 0.2 mg/kg/min, alone or combined (A:I 1:4), Mean±SEM, n=6; for effect of inosine alone on CaBF: 5 min i.v. infusion
Protocol: The study was conducted on 7 week old male Wistar rats weighing 250-300 g. Rats were anaesthetized with Inactin 100 mg/kg i.p. Inactin was preferred to other anaesthetics because of its moderate impact on blood pressure. Heparin-filled (100 IU/ml in saline) catheters were introduced into the left common carotid artery and into the left jugular vein for measurement of blood pressure and drug administration respectively. A flow probe was inserted around the right carotid artery for measurement of carotid blood flow (CaBF).
In a first series of experiments, adenosine was administered as a single agent to identify the dose providing maximal increase in carotid arterial blood flow (“adenosine max”). In this experiment, various concentrations of adenosine were infused continuously through the jugular vein catheter for 5 minutes, with concurrent measurement of carotid arterial blood flow.
A second series of experiments was performed to assess whether inosine could potentiate the effects on CaBF of a continuous intravenous infusion of adenosine at half adenosine max.
In each experiment, the effect on CaBF of (i) adenosine as a single agent, infused continuously for five minutes at adenosine max (0.1 mg/kg/min), (ii) adenosine as single agent infused continuously for five minutes at half adenosine max (0.05 mg/kg/min), and (iii) a composition containing a fixed dose of adenosine at half adenosine max (0.05 mg/kg/min) combined with inosine infused continuously for five minutes, was assessed. In separate experiments, inosine was included in the combined (“BIDOSINE”) composition in amounts required to achieve infusion at 0.1 mg/kg/min (A:I weight ratio of 1:2, FIG. 2A), 0.15 mg/kg/min (A:I weight ratio of 1:3, FIG. 2B), 0.2 mg/kg/min (A:I weight ratio of 1:4, FIG. 2C), and 0.25 mg/kg/min (A:I weight ratio of 1:5, FIG. 2D).

human patients = conditions: cited from earlier work
male Wistar rats [2] = assay: Reperfusion injury after myocardial ischemia in the rat, repeated with 45 minute ischemia; format: in vivo; conditions: day 30 post ischemia, preliminary
Protocol: The experiment was repeated with 45 minute period of ischemia, and with the addition of a further BIDOSINE experimental group. The BIDOSINE composition for this additional group comprised adenosine, administered at 0.01 mg/kg/min ( 1/10 its single agent maximally effective dose) with inosine 0.20 mg/kg/min, for an A:I weight ratio of 1:20. Preliminary results (n=5 per group) of this ongoing study are given in Table 5, below, reporting day 30 post ischemia results.

[3] = cited from earlier work
sheep [4] = assay: Invasive cardiac hemodynamic measurements in experimental sheep model; format: in vivo
Excerpt: An experimental sheep model, developed for invasive hemodynamic measurements under various conditions, was used to study the potentiating and synergistic effects of inosine on continuous adenosine infusion. The model is described in Tanoue et al., “Ischemic preconditioning reduces unloaded myocardial oxygen consumption in an in-vivo sheep model,” Cardiovascular Research 55: 633-641 (2002) and Xia et al., “Remote preconditioning lessens the deterioration of pulmonary function after repeated coronary artery occlusion and reperfusion,” Canadian Journal of Anesthesia 50: 481-488 (2003), the disclosures of which are incorporated herein by reference in their entireties. A total of twelve animals were studied. Briefly, the sheep were premedicated, anesthetized, intubated, and ventilated with positive pressure ventilation. Electrocardiogram (ECG) was continuously followed. The carotid artery was surgically denuded to place an arterial line for arterial blood pressure (ABP) measurement. Denuding of the jugular vein was performed to place a double or triple lumen central venous line for measurement of central venous pressure (CVP) and fluid and drug administration. A small left thoracotomy was made in the third or fourth intercostal space and the heart suspended in a pericardial cradle. A flow probe (transonic probe) was placed around the pulmonary artery and around the left circumflex coronary artery. A catheter was inserted in the pulmonary artery to determine pulmonary arterial pressure. In addition, 9 animals received a conductance catheter which was positioned in the left and right ventricle and preload-afterload variations were made by occlusion and/or constriction of the caval veins and/or pulmonary artery and/or aorta in order to study myocardial contractility. Regional blood flow measurements were also performed using a colored microsphere injection technique. Each animal served as its own control. The sequence of measurements was always the same: 1) under baseline conditions; 2) under adenosine; 3) 15 minutes stabilization, then new measurements under baseline conditions; 4) measurements under bidosine. From the first three animal experiments, it was determined that adenosine 200 μg/kg/min was the optimal single agent adenosine dose, i.e., the dose ensuring the highest coronary flow (adenosine max). Therefore, all further experiments compared this dose to the BIDOSINE formulation containing 100 μg/kg/min (that is, half adenosine max) adenosine+500 μg/kg/min inosine (A:I ratio of 1:5).

[5] = system: rat model of spinal cord ischemia; assay: Photothrombotic model of spinal cord ischemia in rats, behavioral studies; format: in vivo
Protocol: BIDOSINE administration was compared to adenosine (0.1 mg/kg/min), administered by continuous i.v. infusion from thirty to sixty minutes after the injury (n=13 in each group). As controls, a group of animals (n=11) received a 60-min IV perfusion of saline solution starting 30 min after the injury. The potential neuroprotective effect of the compound was evaluated by performing various behavioral studies. In these experiments, the photothrombotic model of ischemia was chosen over the occlusion model (aortic clamp), since it better reproduces the pathophysiology of an ischemic insult. The photothrombotic model has the advantages of (i) causing a […] processes that more perfectly mimics the pathophysiological conditions observed in clinics, and (ii) affecting a controlled volume of nervous tissue. Moreover, the location of the lesion can be restricted to precise regions (three to four […]). The injury is created using a beam of a xenon lamp conveyed by fiberoptics on the selected vertebral site. The irradiation is performed over the translucent dorsal surface of the vertebral laminae. The green light (560 nm) induces the excitation of the previously injected dye (Rose Bengal) present in the spinal cord microvasculature. […]

sheep [6] = assay: Regional myocardial blood flow by colored microsphere technique in sheep; format: in vivo; conditions: mean of 9 experiments, after 5 minutes of adenosine or BIDOSINE
Excerpt: Regional blood flows, as well as potential changes in the distribution of coronary flow into different parts of the myocardium, were also studied. This was done by using a colored microsphere technique, essentially as described in Muller et al., “Developmental changes in cerebral autoregulatory capacity in the fetal sheep parietal cortex,” J Physiol. 539(Pt 3):957-67 (2002); Miller et al., “Physiological evidence for arteriovenous anastomoses in the uterine circulation of late-pregnant ewes,” Clin. Exp. Pharmacol. Physiol. 25(2):92-8 (1998); Herijgers et al., “Changes in organ perfusion after brain death in the rat and its relation to circulating catecholamines,” Transplantation 62: 330-335 (1996); and Wouters et al., “Ischemic event characteristics determine the extent of myocardial stunning in conscious dogs,” Basic Res. Cardiol. 91(2):140-6 (1996), the disclosures of which are incorporated herein by reference in their entireties. Briefly, colored microspheres were injected at baseline, and after 5 minutes of adenosine or BIDOSINE administration. At necropsy, tissue was digested and the number of colored microspheres per gram of wet weight in a tissue sample determined. By comparing these numbers with the number of microspheres in a reference sample drawn from the aorta at a predetermined rate, we could quantify the absolute flow rate to the tissue sample at the moment when the microspheres were injected. The statistical analysis was performed by the same methodology as for the hemodynamic parameters. Values are expressed in ml/min/g tissue (wet weight). LV=left ventricle; RV=right ventricle; endo=endocardial half; epi=epicardial half. As in Table 2, the numbers reflect the sequence of experimental conditions, as follows: 1) under baseline conditions; 2) under adenosine; 3) 15 minutes stabilization, then new measurements under baseline conditions; 4) measurements under bidosine.

male Wistar rats [7] = assay: Reperfusion injury after left myocardial ischemia (35 min LAD occlusion) in the rat, echocardiography; format: in vivo; parameters: EDV (end-diastolic volume), single animals / ESV (end-systolic volume), single animals / EDV (end-diastolic volume), group mean (unlabelled last line of group) / ESV (end-systolic volume), group mean (unlabelled last line of group): unit not given here; conditions: for EDV (end-diastolic volume), single animals / EF (ejection fraction), single animals / ESV (end-systolic volume), single animals: 60 min i.v. infusion after 35 min occlusion
[8] = adenosine 200 μg/kg/min or BIDOSINE (adenosine 100 + inosine 500 μg/kg/min)
[9] = adenosine 200 μg/kg/min or BIDOSINE (adenosine 100 + inosine 500 μg/kg/min), listed as Adenosine

solubility [1]: 20 mg/mL
SMILES: OC[C@H]1O[C@@H](n2cnc3c(O)ncnc32)[C@H](O)[C@@H]1O [inosine]
increase in CaBF, percentage variation from baseline (anaesthetized rats): 4±2%
effect of inosine alone on CaBF (anaesthetized rats; inosine 0.3 mg/kg/min): No response
effect of inosine alone on CaBF (anaesthetized rats; inosine 1 mg/kg/min (10 times adenosine max)): Modest decreases in CaBF
effect of inosine alone on CaBF (anaesthetized rats; inosine between 1 to 10 mg/kg/min): sharp slump and dose-dependent decrease in CaBF

solubility [1]: ~4 mg/mL
Systolic left ventricular pressure (LVPsys), mean (sheep [4]; [8]): decreased significantly more
Systolic left ventricular pressure (LVPsys), mean (sheep [4]; [9]): 59.35
SMILES: Nc1ncnc2c1ncn2[C@@H]1O[C@H](CO)[C@@H](O)[C@H]1O [adenosine]
side effects (human patients; continuous intravenous infusion 140 μg/kg/min for 6 minutes): frequent side effects
adverse reactions (human patients; dosage of 70 μg/kg/min or less): very few and of mild intensity
left ventricular EF (LVEF) (male Wistar rats [2]): 45%
EDV (male Wistar rats [2]; n=5 per group): 0.47
ESV (male Wistar rats [2]; n=5 per group): 0.26
LVEF (male Wistar rats [2]; n=5 per group): 0.45
half life [3]: several seconds
Cardiac output (co), mean (sheep [4]; [8]): 4943
Central venous pressure (CVP), mean (sheep [4]; [8]): 9.4875
Coronary flow (cf), mean (sheep [4]; [8]): 129.55
Heart rate (HR), mean (sheep [4]; [8]): 90.6375
Left ventricular dP/dtmax (contractility) (dpmax), mean (sheep [4]; [8]): 1077.714
Left ventricular dP/dtmin (relaxation) (dpmin), mean (sheep [4]; [8]): worsened significantly more
Mean arterial blood pressure (ABPm), mean (sheep [4]; [8]): decreased significantly more
Mean pulmonary arterial pressure (pupm), mean (sheep [4]; [8]): 16.425
Left ventricular dP/dtmin (relaxation) (dpmin), mean (sheep [4]; [9]): −821.286
Mean arterial blood pressure (ABPm), mean (sheep [4]; [9]): 43.2625
left ventricular relaxation constant (Tau) compared with baseline (sheep [4]; adenosine at adenosine max or BIDOSINE A:I 1:5, ANOVA p=0.001): significantly shorter
coronary blood flow (sheep [4]; continuous i.v. infusion, adenosine 200 μg/kg/min or BIDOSINE (100 + 500 μg/kg/min)): 129.5 cms/sec
optimal single agent adenosine dose, ensuring the highest coronary flow (adenosine max) (sheep [4]; from the first three animal experiments): 200 µg/kg/min
behavioral recovery (motor, sensory and reflex scores), all tested functions ([5]; BIDOSINE 1:5 (adenosine 0.05 + inosine 0.25 mg/kg/min) or adenosine 0.1 mg/kg/min i.v. after injury, follow-up to day 10): best efficacy until day 4
gross and fine motor functional outcomes (open field, inclined plane, grid navigation) ([5]; compared to saline controls, to day 10, two way ANOVA p<0.001): Statistically significant improvements over control
adenosine dose providing maximal CaBF as a single agent (adenosine max) (anaesthetized rats; 5 min continuous i.v. infusion, 0.01-1 mg/kg/min tested): 0.1 mg/kg/min
increase in CaBF, percentage variation from baseline (anaesthetized rats): 7±4%
Regional blood flow, left ventricle endocardial half (Lvendo), mean (sheep [6]): 1.763 ml/min/g tissue (wet weight)
Regional blood flow, left ventricle epicardial half (Lvepi), mean (sheep [6]): 2.039 ml/min/g tissue (wet weight)
Regional blood flow, right ventricle endocardial half (RVendo), mean (sheep [6]): 2.227 ml/min/g tissue (wet weight)
Regional blood flow, right ventricle epicardial half (RVepi), mean (sheep [6]): 1.728 ml/min/g tissue (wet weight)
Regional blood flow, left ventricle endocardial half (Lvendo), mean (sheep [6]; listed as Adenosine): 1.764 ml/min/g tissue (wet weight)
EDV (end-diastolic volume), group mean (unlabelled last line of group) (male Wistar rats [7]; Post-operative day 2): 0.40
EF (ejection fraction), group mean (unlabelled last line of group) (male Wistar rats [7]; Post-operative day 2): 0.60
ESV (end-systolic volume), group mean (unlabelled last line of group) (male Wistar rats [7]; Post-operative day 2): 0.16
EDV (end-diastolic volume), single animals (male Wistar rats [7]; Post-operative day 2): 0.41 and 0.35 and 0.37 and 0.48
EF (ejection fraction), single animals (male Wistar rats [7]; Post-operative day 2): 0.67 and 0.64 and 0.60 and 0.49
ESV (end-systolic volume), single animals (male Wistar rats [7]; Post-operative day 2): 0.14 and 0.13 and 0.15 and 0.24
EDV (end-diastolic volume), group mean (unlabelled last line of group) (male Wistar rats [7]; Post-operative day 30): 0.38
EF (ejection fraction), group mean (unlabelled last line of group) (male Wistar rats [7]; Post-operative day 30): 0.59
ESV (end-systolic volume), group mean (unlabelled last line of group) (male Wistar rats [7]; Post-operative day 30): 0.20
EDV (end-diastolic volume), single animals (male Wistar rats [7]; Post-operative day 30): 0.44 and 0.42 and 0.33 and 0.36
EF (ejection fraction), single animals (male Wistar rats [7]; Post-operative day 30): 0.61 and 0.32 and 0.65 and 0.44
ESV (end-systolic volume), single animals (male Wistar rats [7]; Post-operative day 30): 0.17 and 0.29 and 0.12 and 0.20
ejection fraction (male Wistar rats [7]; day 30, adenosine 0.1 mg/kg/min or adenosine 0.05 + inosine 0.25 mg/kg/min): 59%
